The source made the active and inactive calls. No cut-off for these calls is given here.
Experiments:
[1] = test system: L1210; assay: Cytotoxicity against mouse L1210 cells after 24 hrs by MTT assay; format: functional, cell-based; settings: L1210, 24 h
[2] = test system: Jurkat; assay: Cytotoxicity against human Jurkat cells after 48 hrs by MTT assay; format: functional, cell-based
[3] = Inhibition of bovine brain tubulin assembly after 20 mins by spectrophotometric analysis; set-up: species or system Bos taurus
[4] = test system: HeLa; assay: Antimitotic activity in human HeLa cells assessed as chromatin condensation after 24 hrs by Hoechst 33342 staining; format: functional; settings: read-out: MEC
[5] = test system: HeLa; assay: Antimitotic activity in human HeLa cells assessed as tubulin intensity after 24 hrs by Hoechst 33342 staining; format: functional; settings: read-out: MEC
[6] = test system: PBMC; assay: Cytotoxicity against human PBMC cells after 24 hrs by MTT assay; format: cell-based
[7] = test system: HeLa; assay: Antimitotic activity in human HeLa cells assessed as cell density loss after 24 hrs by Hoechst 33342 staining; format: functional, cell-based
[8] = test system: HeLa; assay: Antimitotic activity in human HeLa cells assessed as increase in phosphohistone H3 level after 24 hrs by Hoechst 33342 staining; format: functional
[9] = test system: HeLa; assay: Antimitotic activity in human HeLa cells assessed as tubulin staining intensity at 1 nM after 24 hrs by Hoechst 33342 staining; format: functional, cell-based
[10] = test system: HeLa; assay: Cell cycle arrest in human HeLa cells assessed as disorganized microtubules at 940 nM after 24 hrs by Hoechst 33342 staining; format: functional, cell-based
[11] = test system: HeLa; assay: Antimitotic activity in human HeLa cells assessed as tubulin staining intensity at 5 nM after 24 hrs by Hoechst 33342 staining; format: functional, cell-based
[12] = test system: MDA-MB-231; assay: Antimigratory activity against human MDA-MB-231 cells at 0.5 to 5 uM after 22 hrs by scratch wound healing assay; format: functional, cell-based
[13] = test system: NIH3T3; assay: Cytotoxicity against mouse NIH/3T3 cells after 24 hrs by MTT assay; format: cell-based; settings: NIH3T3, 24 h
[14] = test system: REH; assay: Cytotoxicity against human REH cells after 48 hrs by MTT assay; format: functional, cell-based
[15] = test system: MDA-MB-231; assay: Antimigratory activity against human MDA-MB-231 cells at 1 uM after 22 hrs by scratch wound healing assay; format: functional
[16] = test system: HUVEC; assay: Cytotoxicity against human HUVEC cells after 24 hrs by MTT assay; format: cell-based
[17] = test system: MDA-MB-231; assay: Antimigratory activity against human MDA-MB-231 cells after 6 hrs by Boyden chamber migration assay; format: functional, cell-based; settings: MDA-MB-231, 6 h
[18] = test system: HeLa; assay: Cell cycle arrest in human HeLa cells assessed as disorganized microtubules at 62 nM after 24 hrs by Hoechst 33342 staining; format: functional, cell-based
[19] = test system: HeLa; assay: Cell cycle arrest in human HeLa cells assessed as disorganized microtubules at 470 nM after 24 hrs by Hoechst 33342 staining; format: functional, cell-based

COc1cc(C(=O)/C=C/c2ccc(Cl)c(C(F)(F)F)c2)cc(OC)c1OC
IC50 [1]: 47.5 µM

O=C(/C=C/c1ccccc1)c1ccccc1 [CHALCONE]
IC50 [2]: 17.1 µM
IC50 [3]: > 10 µM
minimal effective concentration [4]: > 50 µM
minimal effective concentration [5]: > 50 µM
IC50 [6]: 27 µM
EC50 [7]: > 50 µM
Activity [8]: > 50000 nM
IC50 [1]: > 100 µM

COc1cc(C(=O)/C=C/c2cccc([N+](=O)[O-])c2)cc(OC)c1OC
IC50 [1]: > 56 µM

COc1cc(C(=O)/C=C/c2ccc3ccccc3c2)cc(OC)c1OC
Activity [9]: inactive
Activity [10]: Active
Activity [11]: Active
IC50 [2]: 0.5 µM
IC50 [3]: 2.2 µM
IC50 [6]: 18 µM
Activity [12]: Active
IC50 [13]: 34 µM
IC50 [14]: 0.73 µM
EC50 [7]: 0.684 µM
Activity [8]: 397 nM
Activity [15]: 46%
IC50 [16]: 37 µM
IC50 [17]: 1.09 µM
IC50 [1]: 26 µM

COc1cc(C(=O)/C=C/c2ccc([N+](=O)[O-])cc2)cc(OC)c1OC
IC50 [1]: > 100 µM

COc1cc2c(c(OC)c1OC)-c1ccc(OC)c(=O)cc1[C@@H](NC(C)=O)CC2 [COLCHICINE]
Activity [9]: inactive
Activity [18]: Active
Activity [11]: Active
Activity [12]: Active
Activity [15]: 74%

COc1cc(C(=O)/C=C/c2ccc(Cl)c(Cl)c2)cc(OC)c1OC
IC50 [1]: 44 µM

COc1cc(C(=O)/C=C/c2c(Cl)cccc2Cl)cc(OC)c1OC
IC50 [1]: 50.5 µM

COc1cc(/C=C/C(=O)c2cc(OC)c(OC)c(OC)c2)ccc1O
IC50 [1]: > 100 µM

CCCCOc1ccc(/C=C/C(=O)c2cc(OC)c(OC)c(OC)c2)cc1
IC50 [1]: > 100 µM

COc1ccc(/C=C/C(=O)c2ccc3c(c2)OCO3)c(OC)c1OC
IC50 [2]: 30 µM
IC50 [3]: > 10 µM
minimal effective concentration [4]: > 50 µM
minimal effective concentration [5]: > 50 µM
IC50 [6]: 81.2 µM
IC50 [14]: 23.6 µM
EC50 [7]: > 50 µM
Activity [8]: > 50000 nM
IC50 [1]: 47.5 µM

COc1cc(C(=O)/C=C/c2cc(Cl)cc(Cl)c2)cc(OC)c1OC
IC50 [1]: 44 µM

COc1cc(/C=C/C(=O)c2cc(OC)c(OC)c(OC)c2)cc(OC)c1OC
IC50 [1]: > 100 µM

COc1cc(C(=O)/C=C/c2ccc(F)cc2)cc(OC)c1OC
IC50 [1]: 46.5 µM

COc1cc(C(=O)/C=C/c2ccc(C)o2)cc(OC)c1OC
IC50 [1]: 46.5 µM

COc1cc(C(=O)/C=C/c2ccc(C)cc2)cc(OC)c1OC
IC50 [1]: 50.5 µM

COc1cc(OC)c(OC)cc1/C=C/C(=O)c1cc(OC)c(OC)c(OC)c1
IC50 [1]: 42.5 µM

COc1ccc(/C=C/C(=O)c2cc(OC)c(OC)c(OC)c2)cc1
IC50 [1]: 48 µM

COc1cc(C(=O)/C=C/c2ccc(Cl)cc2)cc(OC)c1OC
IC50 [1]: 44.5 µM

COc1cc(C(=O)/C=C/c2ccc(Cl)cc2Cl)cc(OC)c1OC
IC50 [1]: 52.5 µM

COc1cc(OC)c(/C=C/C(=O)c2cc(OC)c(OC)c(OC)c2)c(OC)c1
IC50 [1]: 62.5 µM

COc1cc(C(=O)/C=C/c2ccc(Br)cc2)cc(OC)c1OC
IC50 [1]: > 100 µM

COc1cc(C(=O)/C=C/c2ccc3ccccc3c2)ccc1O
IC50 [2]: 5.9 µM
IC50 [3]: 3.6 µM
minimal effective concentration [4]: 2.2 µM
minimal effective concentration [5]: 1.1 µM
IC50 [6]: 35.6 µM
IC50 [14]: 2.58 µM
EC50 [7]: 3.3 µM
Activity [8]: 1400 nM
IC50 [1]: 54 µM

COc1cc(C(=O)/C=C/c2ccc(N(C)C)cc2)cc(OC)c1OC (mixture of isomers)
Activity [9]: inactive
Activity [19]: Active
Activity [11]: Active
IC50 [2]: 1.2 µM
IC50 [3]: 2.8 µM
IC50 [6]: 92.5 µM
Activity [12]: Active
IC50 [13]: 66 µM
IC50 [14]: 1.05 µM
EC50 [7]: 0.357 µM
Activity [8]: 200 nM
Activity [15]: 54%
IC50 [16]: > 100 µM
IC50 [17]: 0.656 µM
IC50 [1]: 30 µM

— ChEMBL document CHEMBL2375311, “Cytotoxic 3,4,5-trimethoxychalcones as mitotic arresters and cell migration inhibitors” (Eur J Med Chem, 2013)
